Measured values taken from patent US9173843B2, “Crystalline active ingredient microparticles, method for producing the same and use thereof in drugs” (Jesalis Pharma GMBH, priority 2008, dated 2015).

Columns and labels:
[1] = grain size distribution by laser diffraction (Sympatec Helos, RODOS dry disperser); assay type: physicochemical; details: vol. % of particles smaller than value
Protocol: The particle size distribution (grain size distribution) is measured by means of a laser diffraction, which provides a distribution curve of the particle sizes (System Sympatec Helos, RODOS dry disperser). dx means that x volume percent (vol. %) of the particles have a diameter that is smaller than the stated value. Thus, at a d50 value of 1 μm, 50 vol. % of the particles have a diameter smaller than 1 μm (micrometer). When the d10, d99 or d100 is 2 μm, 10, 99 or 100 vol. % of the particles have a diameter smaller than 2 μm.
A 100-ml stirred vessel with blade stirrer is charged with 160 g of Y-stabilized zirconium oxide spheres with a diameter of 0.5 mm plus 30 ml water. A solution of 1.5 g drospirenone in 6.25 ml ethanol/water 4:1 (v/v) is added, with stirring. After precipitation of a mainly amorphous phase, transformation to the crystalline modification begins after approximately 2 min. This is completed after 10 to 15 min. After completion of the phase transformation, a solution of 4.5 g drospirenone in 18.75 ml ethanol/water 4:1 (v/v) and in the same ratio 90 ml water is added dropwise within 15 min, with stirring at 1500 rpm. Simultaneously, with approximately constant filling level, product suspension is drawn off. Addition and product withdrawal can also take place quasicontinuously in smaller portions without any adverse effect on the result, if the above time frame is maintained. After the end of addition, to make the yield complete, approx. 60 ml water is used for rinsing. Alternatively, the suspension in the crystallizer can also be left as starting suspension for the next batch. Altogether, 200 g of suspension is obtained, with a solids content of 25 mg per ml. Approximately 15 ml of this suspension is filtered on a G4 frit and the solid is air-dried. The grain size distribution of the dried substance is determined by laser diffraction (Sympatec Helos, RODOS dispersing system).
Granulometric analysis is carried out by laser diffraction (Sympatec Helos, RODOS dispersing system):
Granulometric analysis was carried out by laser diffraction (Sympatec Helos, RODOS dispersing system, dispersing pressure 5 bar).

[2] = solubility kinetics by the paddle method (dissolved fraction by HPLC); assay type: physicochemical; details: 900 ml water, 37° C., 150 rpm; micronizate pre-dispersed in 2 ml PVP-containing solution
Protocol: 14 mg of the solid form with Methocel E5 as excipient according to Example 2 with a content of active substance of 21.5 wt. % (equivalent to 3 mg drospirenone) is added to 900 ml water, at 37° C. and stirred at 150 rpm with a blade stirrer. A blind sample (starting value) and samples at 5, 10, 20, 30, and 60 min are taken, filtered in a 0.2 μm syringe filter and the dissolved fraction of drospirenone is determined by HPLC. A conventional micronizate (jet mill) serves as comparison. So that the dissolution behavior of the primary grains of the micronizate is assessed exclusively, wetting and agglomeration effects must be avoided. Therefore, before it was added to the 900 ml of water, the micronizate was dispersed in 2 ml of a PVP-containing solution. The process of release of the particles from the solid form and the subsequent process of dissolution are completed after 5 min, whereas with the conventional micronizate, even with perfect wetting and dispersion of the particles, still almost 30% of the active substance is undissolved after 5 min.

d16 (grain size distribution) [1] [μm]	d50 (grain size distribution) [1] [μm]	d99 (grain size distribution) [1] [μm]	d100 (grain size distribution) [1] [μm]	active substance undissolved after 5 min [2] [%]	SMILES
0.52	1.48	4.63	6.00		C[C@]12CCC(=O)C=C1[C@@H]1C[C@@H]1[C@H]1[C@@H]3[C@@H]4C[C@@H]4[C@@]4(CCC(=O)O4)[C@@]3(C)CC[C@@H]12 [Example 1, drospirenone]
				~30	C[C@]12CCC(=O)C=C1[C@@H]1C[C@@H]1[C@H]1[C@@H]3[C@@H]4C[C@@H]4[C@@]4(CCC(=O)O4)[C@@]3(C)CC[C@@H]12 [conventional micronizate, drospirenone]
